Test results published in patent publication US7015246B2, “Benzofuran derivatives” (Bayer Aktiengesellschaft, priority 2001, dated 2006).

Test system: thyroid hormone-regulated promoter (TRE) luciferase in HepG2 hepatocarcinoma cell
Assay: T3 promoter assay cell test (luciferase reporter)
Format: cell-based
Conditions: Homo sapiens; stably transfected HepG2 cells, luciferase induction; one range stated for the listed examples together; read-out: effect in the T3 promoter assay cell test
Procedure: The activity of the compounds according to the invention can be tested, for example, in vitro using the T3 Promoter Assay Cell test, which is described below:
The test is carried out using a stably transfected human HepG2 hepatocarcinoma cell which expresses a luciferase gene under the control of a thyroid hormone-regulated promoter. The vector which is used for the transfection carries a minimal thymidine kinase promoter, containing a thyroid hormone-responsive element (TRE) which consists of two inverted palindromes of in each case 12 bp and an 8 bp spacer, upstream of the luciferase gene.
For the test, the cell cultures are sown, in Eagle's minimal essential medium containing the following additions: glutamine, tricine [N(tris-(hydroxymethyl)-methyl)glycine], sodium pyruvate, non essential amino acids, (L-Ala, L-Asn, L-Asp, L-Pro, L-Ser, L-Glu, Gly), insulin, selenium and transferrin, in 96-well plates. The cultures are grown for 48 hours at 37° C. and under a 10% CO2 atmosphere. After that, serial dilutions of test substance or reference compound (T3, T4) and costimulator retinoic acid are added to the test cultures and the latter are incubated for a further 48 or 72 hours as before. Each substance concentration is tested in four replicates. In order to determine the luciferase which is induced by T3 or other substances, the cells are then lyzed by adding a buffer containing Triton and luciferin (from Promega) and immediately measured luminometrically.

EC50, 0.5 to 240 nM:
CCOC(=O)CC1Cc2c(cc(C)c(Oc3ccc(O)c(C(C)C)c3)c2C)O1 (stereo not shown) [Example 28, Ethyl [5-(4-hydroxy-3-isopropylphenoxy)-4,6-dimethyl-2,3-dihydro-1-benzofuran-2-yl]acetate]
Cc1cc2oc(C(=O)O)cc2c(C)c1Oc1ccc(O)c(C(C)C)c1 [Example 17, 5-(4-Hydroxy-3-isopropylphenoxy)-4,6-dimethyl-1-benzofuran-2-carboxylic acid]
CCOC(=O)c1cc2c(Br)c(Oc3ccc(O)c(C(=O)c4ccc(F)cc4)c3)c(Br)cc2o1 [Example 32, Ethyl 4,6-dibromo-5-[3-(4-fluorobenzoyl)-4-hydroxyphenoxy]-1-benzofuran-2-carboxylate]
CCOC(=O)Cc1coc2c(C)c(Oc3ccc(OC)c(C(C)C)c3)c(C)cc12 [Example 18, Ethyl 2-[6-(3-isopropyl-4-methoxyphenoxy)-5,7-dimethyl-1-benzofuran-3-yl]acetate]
